Source: patent US20100016400A1, “AZABICYCLIC MUSCARINIC RECEPTOR ANTAGONISTS” (priority 2004, published 2010)

melting point [°C] | Compound
71.3 to 72.7 | CN(C)C1C2CN(C(=O)C(O)(c3ccccc3)C3CCCCC3)CC21 (stereo not drawn)
179.7 to 182 | CNC1C2CN(C(=O)C(O)(c3ccccc3)C(F)(F)F)CC21 (stereo not drawn)
140 to 142 | CNCC1C2CN(C(=O)C(O)(c3ccccc3)C3CCCCC3)CC12 (stereo not drawn)

Further lines, the compound ahead of its results:

Compound | melting point [°C]
CNCC1C2CN(C(=O)C(O)(c3ccccc3)C(F)(F)F)CC12 (stereo not drawn) | 110 to 113
CNC1C2CN(C(=O)C(O)(c3ccc(C)cc3)C(F)(F)F)CC21 (stereo not drawn) | 178 to 179.4
CNCC1C2CN(C(=O)C(O)(c3ccc(C)cc3)C(F)(F)F)CC12 (stereo not drawn) | 191 to 194
